These results are taken from ChEMBL document CHEMBL4000185, “Pyrimidine-Based Inhibitors of Dynamin I GTPase Activity: Competitive Inhibition at the Pleckstrin Homology Domain” (J Med Chem, 2017).

Molecules are shown by their SMILES. Active and inactive are the calls of the source. The calls are words filed in the database; no cut-off is given here. Some results are limits rather than exact numbers.

Broadly, the inhibition is the change of the read-out against control, counted positive when it falls. The IC50 is the concentration needed to halve the response being measured.

For the first assay, the species on record is Ovis aries. The assay can be described thus: Inhibition of phosphatidyl serine liposome-stimulated sheep brain dynamin 1 GTPase activity assessed as reduction orthophosphate release up to 300 uM using GTP as substrate after 30 mins by malachite green reagent based colorimetric assay relative to control.
Details: not given
As for `CCCCCCCCCCNc1cc(C)nc(Cl)n1`, the inhibition entry was “inactive”.
With `CCC(C)Nc1nc(C)cc(Cl)n1` (stereo unspecified), the inhibition result is “inactive”.
As to `CCCCCCCCNc1cc(C)nc(Cl)n1`, the inhibition entry was “inactive”.
The same measure, in the same setting: for `Cc1cc(N(C)C)nc(Cl)n1` the value was “inactive”; for `COc1ccc(CNc2cc(C)nc(Cl)n2)cc1`, “inactive”; for `Cc1cc(Cl)nc(NCCNC(=O)OC(C)(C)C)n1`, “inactive”.
Same read-out and setting: next, `CCCN(CC1CC1)c1cc(C)nc(Cl)n1`: “inactive”; `CCNc1cc(C)nc(Cl)n1`: “inactive”.
On the same count and under the same terms, next, `CCNc1nc(C)cc(Cl)n1`: “inactive”; `CCCCNc1nc(C)cc(Cl)n1`: “inactive”; `Cc1cc(NCCCN(C)C)nc(Cl)n1`: “inactive”.
As for `Cc1cc(NCCN)nc(Cl)n1`, the inhibition result is “inactive”.
The same measure, in the same setting: for `CCCN(CC1CC1)c1nc(C)cc(Cl)n1` the value was “inactive”; for `CCCCCCNc1cc(C)nc(Cl)n1`, “inactive”; for `Cc1cc(Cl)nc(NCCN)n1`, “inactive”.
The same measure, in the same setting: for `Cc1cc(N2CCN(C)CC2)nc(Cl)n1` the value was “inactive”.
On the same count and under the same terms, next, `Cc1cc(NCc2ccccc2)nc(Cl)n1`: “inactive”.
Turning to `CCCCNc1cc(C)nc(Cl)n1`, the inhibition result is “inactive”.
On to `Cc1cc(Cl)nc(NC2CCCCC2)n1`, for which the inhibition result was “inactive”.
The same measure, in the same setting: next, `CCCCCCCCCCCCCCNc1nc(C)cc(Cl)n1`: “inactive”; `CCCCCCNc1nc(C)cc(Cl)n1`: “inactive”.
On to `Cc1cc(NCCNC(=O)OC(C)(C)C)nc(Cl)n1`, for which the inhibition result was “inactive”.
Turning to `Cc1cc(Cl)nc(NCCCN(C)C)n1`, the inhibition result is “inactive”.
Still for that read-out and setting: for `CCC(C)Nc1cc(C)nc(Cl)n1` (stereo unspecified) the value was “inactive”; for `Cc1cc(NC2CCCCC2)nc(Cl)n1`, “inactive”.
On the same count and under the same terms, next, `COc1ccc(CNc2nc(C)cc(Cl)n2)cc1`: “inactive”; `CCCNc1cc(C)nc(Cl)n1`: “inactive”; `CCCNc1nc(C)cc(Cl)n1`: “inactive”.
Same read-out and setting: next, `Cc1cc(Cl)nc(NCc2ccccc2)n1`: “inactive”.
As to `Cc1cc(Cl)nc(N(C)C)n1`, the inhibition entry is “inactive”.
Regarding `CCCCCCCCNc1nc(C)cc(Cl)n1`, the inhibition result is “inactive”.
The same measure, in the same setting: next, `CCCCCCCCCCCCCCNc1cc(C)nc(Cl)n1`: “inactive”.
On the same count and under the same terms, for `Cc1cc(Cl)nc(N2CCN(C)CC2)n1` the value was “inactive”.

Another assay is filed under the species Ovis aries. In words: Inhibition of phosphatidyl serine liposome-stimulated sheep brain dynamin 1 GTPase activity assessed as reduction orthophosphate release at 300 uM using GTP as substrate after 30 mins by malachite green reagent based colorimetric assay relative to control.
Details: not given
On to `CCC(C)Nc1cc(C)nc(NCCN(C)C)n1` (stereo unspecified), for which the inhibition entry is “inactive”.
On the same count and under the same terms, next, `CCCCNc1nc(C)cc(NCCN(C)C)n1`: “inactive”; `CCCCNc1cc(C)nc(NCCN(C)C)n1`: over 50%.
As for `CCC(C)Nc1nc(C)cc(NCCN(C)C)n1` (stereo unspecified), the inhibition is over 50%.
For the compound `CCNc1nc(C)cc(NCCN(C)C)n1`, the inhibition entry is “inactive”.
On the same count and under the same terms, next, `Cc1cc(NCCN(C)C)nc(NCc2ccccc2)n1`: over 50%; `Cc1cc(NCc2ccccc2)nc(NCCN(C)C)n1`: over 50%.
For the compound `CCNc1cc(C)nc(NCCN(C)C)n1`, the inhibition result was “inactive”.
The same measure, in the same setting: next, `CCCNc1nc(C)cc(NCCN(C)C)n1`: “inactive”; `CCCNc1cc(C)nc(NCCN(C)C)n1`: “inactive”.

System in a further assay: not listed separately
The assay can be described thus: Inhibition of phosphatidyl serine liposome-stimulated sheep brain dynamin 1 GTPase activity assessed as reduction orthophosphate release using GTP as substrate after 30 mins by malachite green reagent based colorimetric assay. Set-up: species or system Ovis aries.
Details: not given
For `CCCCCCCCCCCCCCNc1nc(C)cc(NCCN(C)C)n1`, the IC50 entry is listed as “Not Active”.

Staying with this assay, now noted: read-out: IC50.
Turning to `CCCCCCCCCCCCNc1cc(C)nc(Cl)n1`, the IC50 was 32.5 µM.
Still for that read-out and setting: next, `CCCN(CC1CC1)c1nc(C)cc(NCCN(C)C)n1`: 59.8 µM.
On the same count and under the same terms, next, `CCCCCCCCCCCCNc1nc(C)cc(NCCCN(C)C)n1`: 37.7 µM.
Same read-out and setting: next, `CCCCCCCCCCN(CCCCCCCCCC)c1cc(C)nc(NCCN(C)C)n1`: 7.5 µM; `CCCCNc1cc(C)nc(NCCN(C)C)n1`: over 50 µM.
On to `CCCCCCCCCCCCNc1ccnc(NCCN(C)C)n1`, for which the IC50 amounted to 1.8 µM.
With `CCCCCCCCCCCCCCCCCCNc1nc(C)cc(NCCN(C)C)n1`, the IC50 was 4.4 µM.
Turning to `CCC(C)Nc1nc(C)cc(NCCN(C)C)n1` (stereo unspecified), the IC50 is over 50 µM.
Still for that read-out and setting: next, `CCCCCCNc1cc(C)nc(NCCN(C)C)n1`: 10.6 µM.
On the same count and under the same terms, for `CCCCCCCCCCCCCCNc1cc(C)nc(NCCN(C)C)n1` the value was 3.2 µM; for `CCCN(CC1CC1)c1cc(C)nc(NCCN(C)C)n1`, 52 µM.
On the same count and under the same terms, next, `CCCCCCCCCCCCNc1nc(C)cc(NCCO)n1`: 5.5 µM.
Consider `CCCCCCCCCCCCNc1cc(C)nc(NCCCN(C)C)n1`, for which the 50% inhibitory concentration (IC50) is 49 µM.
On the same count and under the same terms, next, `Cc1cc(NCCN(C)C)nc(NCc2ccccc2)n1`: over 50 µM; `CCCCCCCCNc1cc(C)nc(NCCN(C)C)n1`: 1.6 µM; `Cc1cc(NCc2ccccc2)nc(NCCN(C)C)n1`: over 50 µM.
Regarding `CCCCCCCCCCCCNc1cc(C)nc(NCCN(C)C)n1`, the IC50 was determined as 1.1 µM.
Same read-out and setting: for `CCCCCCCCCCCCNc1cc(C)nc(NCCO)n1` the value was 4.6 µM; for `Cc1cc(NCCN(C)C)nc(NC2CCCCC2)n1`, 3.8 µM; for `CCCCCCCCCCCCNc1nc(C)cc(NCCC)n1`, 4.7 µM.
Same read-out and setting: next, `CCCCCCCCCCCCNc1cc(NCCN(C)C)ncn1`: 7.7 µM.
On the same count and under the same terms, for `CCCCCCCCNc1nc(C)cc(NCCN(C)C)n1` the value was 2.5 µM; for `CCCCCCCCCCCCNc1nc(C)cc(NCCN)n1`, 18.6 µM; for `CCCCCCCCCCNc1cc(NCCN(C)C)ncn1`, 5.1 µM.
Regarding `CCCCCCCCCCCCCCCCCCNc1cc(C)nc(NCCN(C)C)n1`, the IC50 amounted to 8.4 µM.
On the same count and under the same terms, for `CCCCCCCCCCCCNc1cc(C)nc(NCCC)n1` the value was 61.8 µM; for `CCCCCCCCCCNc1nccc(NCCN(C)C)n1`, 44.9 µM; for `CCCCCCCCCCCCNc1nccc(NCCN(C)C)n1`, 2 µM.
On the same count and under the same terms, for `CCCCCCCCCCN(CCCCCCCCCC)c1nc(C)cc(CCN(C)C)n1` the value was 5.2 µM; for `CCCCCCCCCCCCNc1cc(C)nc(NCCN)n1`, 5.3 µM.
With `Cc1cc(NC2CCCCC2)nc(NCCN(C)C)n1`, the IC50 turned out to be 20.6 µM.
On the same count and under the same terms, for `CCCCCCCCCCCCNc1nc(C)cc(N(C)C)n1` the value was 3.3 µM; for `CCCCCCNc1nc(C)cc(NCCN(C)C)n1`, 5.8 µM; for `CCCCCCCCCCNc1ccnc(NCCN(C)C)n1`, 2.9 µM.
Consider `CCCCCCCCCCCCNc1cc(C)nc(N(C)C)n1`, for which the IC50 amounted to 14 µM.
Consider `CCCCCCCCCCNc1nc(C)cc(NCCN(C)C)n1`, for which the IC50 was 9.3 µM.
Same read-out and setting: next, `CCCCCCCCCCNc1cc(C)nc(NCCN(C)C)n1`: 3.8 µM.
